From US5631261A, “Triazoloquinazolines, their preparation and use” (BASF Aktiengesellschaft, priority 1992, dated 1997)

Legend:
[1] = target: T1, NMDA receptor (N-methyl-D-aspartate) (Rattus norvegicus, UniProt P35439); experiment: Binding of 3H-5,7-dichlorokynurenic acid (displacement from rat cerebral membranes); conditions: buffer pH 7.4, on ice 30 minutes
T1 construct: isolated membrane material from rat cerebra; from tissue; host or cells: rat cerebrum, washed membranes
Protocol: (§1) The pharmacological activity of the compounds I according to the invention was investigated on isolated membrane material from rat cerebra. To do this, the membrane material was treated in the presence of the compounds according to the invention with the radiolabeled substances ^3 H-2-amino-3-hydroxy-5-methyl-4-isoxazolepropionic acid (^3 H-AMPA) and ^3 H-5,7-dichlorokynurenic acid, the latter binding to specific receptors (AMPA receptor and NMDA receptor (N-methyl-D-aspartate)respectively). The radioactivity of the treated membranes was subsequently measured by scintillation counting. The amounts of bound ^3 H-AMPA and ^3 H-5,7-dichlorokynurenic acid, or in each case the amounts of these radiolabeled substances displaced, were determined from the bound radioactivity. The dissociation constant KI (I=inhibitor) resulting from this, which is a measure of the displacing effect of the agent according to the invention, was found by iterative nonlinear regression analysis using the Statistical Analysis System (SAS) on an IBM computer, similar to the Ligand program of P. J. Munson or D. Rodbard (Analytical Biochem. 107, 220 (1980), Ligand: Versatile Computerized Approach for Characterization of Ligand Binding Systems).
2. Binding of ^3 H-5,7-dichlorokynurenic acid
To prepare the membrane material, freshly removed rat cerebra were homogenized together with about 10 times the volume of a buffer solution A' composed of 50 mM TRIS-HCl and 10 mM EDTA, pH 7.4. The suspension was centrifuged at 48,000 g for 20 minutes. After removal of the supernatant liquid, the membrane material present in the sediment was washed twice by suspension in buffer solution A' and subsequent centrifugation for 20 minutes each time and suspension. After resuspension of the membranes in buffer solution A' and freezing in liquid nitrogen, the suspension was thawed again at 37° C. and, after another wash step, incubated at 37° C. for 15 minutes. The protein material was subsequently washed by centrifugation and suspension four times and was stored at -70° C. until used.
For the binding assay, the protein material was thawed at 37° C. and washed twice by centrifugation at 48,000 g (20 minutes) followed by suspension in a buffer solution B' composed of 50 mM TRIS-HCl, pH 7.4. Subsequently 0.15 mg of membrane material, 0.3 μCi of ^3 H-5,7-dichlorokynurenic acid (16 Ci/mmol) and compound I were dissolved in 1 ml of buffer solution B' and incubated on ice for 30 minutes. The incubated solution was centrifuged at 150,000 g for 2 minutes. After removal of the supernatant liquid, the sediments were suspended twice in 1.5 ml of cold buffer solution B' each time. After the radioactivity of the ^3 H-5,7-dichlorokynurenic acid bound to the membranes in the sediment had been measured, the KI was found by subjecting the displacement plots to regression analysis.

AMPA receptor = experiment: Binding of 3H-AMPA (displacement from rat cerebral membranes); conditions: buffer pH 7.1, on ice 60 minutes
Protocol: as §1
1. Binding of ^3 H-2-amino-3-hydroxy-5-methyl-4-isoxanolpropionic acid (^3 H-AMPA)
To prepare the membranes, freshly removed rat cerebra were homogenized together with about 15 times the volume of a buffer solution A composed of 30 mM α,α,α-tris(hydroxymethyl)methylamine hydrochloride (TRIS-HCl) and 0.5 mM ethylenediaminetetraacetic acid (EDTA), pH 7.4, using an Ultra-TURRAX. The suspension was centrifuged at 48,000 g for 20 min. After removal of the supernatant liquid, the proteinaceous membrane material present in the sediment was washed three times by suspension in buffer solution A and subsequent centrifugation at 48,000 g for 20 minutes each time. The membrane material was then suspended in 15 times the volume of buffer solution A and incubated at 37° C. for 30 minutes. The protein material was subsequently washed twice by centrifugation and suspension and stored at -70° C. until used.
For the binding assay, the protein material was thawed at 37° C. and washed twice by centrifugation at 48,000 g (20 minutes) followed by suspension in a buffer solution B composed of 50 mM TRIS-HCl, 0.1 M potassium thiocyanate and 2.5 mM calcium chloride, pH 7.1. Subsequently 0.25 mg of membrane material, 0.1 μCi of ^3 H-AMPA (60 Ci/mmol) and compound I were dissolved in 1 ml of buffer solution B and incubated on ice for 60 minutes. The incubated solution was filtered through a CF/B filter (from Whathman) which had previously been treated with a 0.5% strength aqueous solution of polyethyleneimine for at least 2 hours. The filtrate [sic] was then washed with 5 ml of cold buffer solution B in order to separate bound and free ^3 H-AMPA from one another. After the radioactivity of the bound ^3 H-AMPA in the membrane material had been measured by scintillation counting, the KI was determined by subjecting the displacement plots to regression analysis.

SMILES	Ki [1] [nM]	Ki (AMPA receptor) [nM]
COC(=O)CCc1nc2c3cc(C)c(C)cc3[nH]c(=O)n2n1 [Example 4, Methyl 3-(8,9-dimethyl-1,2,4-triazolo[1,5-c]quinazolin-5-on-2)propionate]	1750	
O=C(O)CCc1nc2c3cc([N+](=O)[O-])c([N+](=O)[O-])cc3[nH]c(=O)n2n1 [Example 15]	400	1000
O=C(O)CCc1nc2c3ccc(C(F)(F)F)cc3[nH]c(=O)n2n1 [Example 18]	650	600
Cc1cc2[nH]c(=O)n3nc(CCC(=O)NCc4ccccc4)nc3c2cc1C [Example 21, 3-(8,9-Dimethyl-1,2,4-triazolo[1,5-c]quinazolin-5-on-2)propionic acid benzylamide]	800	

Further lines, results first:

Ki [1] [nM]	Ki (AMPA receptor) [nM]	SMILES
500	3400	O=C(O)CCCc1nc2c3ccc([N+](=O)[O-])cc3[nH]c(=O)n2n1 [Example 13]
170	600	O=C(O)CCc1nc2c3ccc([N+](=O)[O-])cc3[nH]c(=O)n2n1 [Example 14]
100		Cc1cc2[nH]c(=O)n3nc(CCC(=O)O)nc3c2cc1C [Example 16]
300	700	O=C(O)CCc1nc2c3ccc4ccccc4c3[nH]c(=O)n2n1 [Example 19]
400	600	O=C(O)CCc1nc2c3cc4ccccc4cc3[nH]c(=O)n2n1 [Example 20]
